In patent US20050101595A1, “N-containing cycloalkyl-substituted amino-thiazole derivatives and pharmaceutical compositions for inhibiting cell proliferation and methods for their use” (PFIZER INC., priority 2003, published 2005):
Counter-ions that a name gives are not always drawn. Like-named read-outs stand apart in the source and are kept apart here.

Key:
[1] = target: CDK2/Cyclin A (Homo sapiens, UniProt P24941); experiment: Inhibition of CDK2/Cyclin A Retinoblastoma Kinase Activity; type: biochemical; conditions: for Ki: apparent Ki, CDK2/proteolyzed cyclin A, Rb fragment substrate, 25 μM ATP
Outline: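 CDK2 (10 or 19 nM), insect-cell expressed, gel-filtration purified with truncated cyclin A; Rb fragment substrate; 25 μM ATP; 10 mM HEPES pH 7.4, 10 mM MgCl2; 30° C, 60 or 75 min; EDTA stop; phosphocellulose/nitrocellulose capture, phosphorimager. % inhibition vs DMSO control, no-enzyme background subtracted.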

[2] = test system: HCT-116 cell line; experiment: Inhibition of cell growth, tetrazolium salt (MTT) assay; type: cell-based; conditions: for IC50: Homo sapiens, HCT-116, 120 h, MTT, three to five days, read-out: HCT-116 IC50; for HCT-116 % Inhibition at 0.25 μM: 0.25 μM compound
Outline: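 MTT colorimetric viability: three-to-five-day compound exposure in 0.5% (v/v) DMSO at 37° C, MTT 0.2 mg/mL for the last 4 h, A540 compared with vehicle-treated cells.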

[3] = target: human CDK4 and genetically truncated (1-264) cyclin D3 (Homo sapiens, UniProt P11802); experiment: Inhibition of CDK4/Cyclin D Retinoblastoma Kinase Activity; type: biochemical; conditions: for Ki: apparent Ki, CDK4/truncated cyclin D3, Rb fragment substrate, 25 μM ATP
Outline: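 The enzyme complex (5 nM), expressed in co-infected insect cells, was incubated with recombinant Rb fragment, 25 μM radiolabelled ATP and 2% DMSO at 30 °C. Reactions were stopped with EDTA after 20 minutes, or 60 minutes for tight-binding inhibitors. Apparent Ki values came from competitive inhibition fits.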

[4] = 0.1 μM compound, HCT-116, Table 3

Sequence of human CDK4 and genetically truncated (1-264) cyclin D3 (P11802 whole entry, the tested form may be a part): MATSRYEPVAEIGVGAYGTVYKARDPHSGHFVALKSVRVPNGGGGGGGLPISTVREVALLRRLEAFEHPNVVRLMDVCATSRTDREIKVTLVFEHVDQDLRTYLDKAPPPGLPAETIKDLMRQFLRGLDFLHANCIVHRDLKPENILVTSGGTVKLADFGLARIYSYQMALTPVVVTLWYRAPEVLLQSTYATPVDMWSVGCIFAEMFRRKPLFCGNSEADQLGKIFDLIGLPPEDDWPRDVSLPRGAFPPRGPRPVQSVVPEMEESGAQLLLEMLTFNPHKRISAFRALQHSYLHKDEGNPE
Sequence of human CDK4 and genetically truncated (1-264) cyclin D3 (P30281 1-264 partner): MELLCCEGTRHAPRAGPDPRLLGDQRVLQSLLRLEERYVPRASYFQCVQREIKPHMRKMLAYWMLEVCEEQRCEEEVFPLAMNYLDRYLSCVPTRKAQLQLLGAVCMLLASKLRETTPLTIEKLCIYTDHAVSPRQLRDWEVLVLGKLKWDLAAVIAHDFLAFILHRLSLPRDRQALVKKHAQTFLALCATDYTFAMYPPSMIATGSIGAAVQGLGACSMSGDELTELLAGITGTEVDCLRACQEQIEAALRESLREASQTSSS

Row | Ki [1] | IC50 ([2]; first HCT-116 column (c4)) | IC50 ([2]; second HCT-116 column (c5)) | Ki [3] | CDK2 % Inhibition at 0.03 μM ([1]; 0.03 μM compound, Table 3) | CDK4 % Inhibition at 0.03 μM ([3]; 0.03 μM compound, Table 3) | SMILES | HCT-116 % Inhibition at 0.1 μM [2, 4] | HCT-116 % Inhibition at 0.25 μM ([2]; HCT-116, Table 3) | further results
1 | – | – | – | – | 55% | 56% | COC(=O)c1ccccc1S(=O)(=O)N1CCC(Nc2nc(N)c(C(=O)c3c(F)cccc3F)s2)CC1 [Example P28] | 7% | 28% | –
2 | – | – | – | – | −8% | 22% | Nc1nc(NC2CCN(S(=O)(=O)c3c(F)cccc3F)CC2)sc1C(=O)c1c(F)cccc1F [Example P67] | 9% | 25% | –
3 | – | – | – | – | 65% | 82% | Nc1nc(NC2CCN(S(=O)(=O)c3ccc(-c4ccccn4)s3)CC2)sc1C(=O)c1c(F)cccc1F [Example P45] | 14% | 27% | –
4 | – | – | – | – | −23% | 16% | CS(=O)(=O)CS(=O)(=O)N1CCC(Nc2nc(N)c(C(=O)c3c(F)cccc3F)s2)CC1 [Example P53] | 21% | 27% | –
5 | – | – | – | – | −23% | 22% | Nc1nc(NC2CCN(S(=O)(=O)c3cccc([N+](=O)[O-])c3)CC2)sc1C(=O)c1c(F)cccc1F [Example P11] | 19% | 27% | –
6 | – | – | – | – | 3% | 27% | Cc1noc(C)c1S(=O)(=O)N1CCC(Nc2nc(N)c(C(=O)c3c(F)cccc3F)s2)CC1 [Example P51] | 18% | 21% | –
7 | – | – | – | – | 15% | 32% | CC(=O)Nc1nc(C)c(S(=O)(=O)N2CCC(Nc3nc(N)c(C(=O)c4c(F)cccc4F)s3)CC2)s1 [Example P4] | 18% | 24% | –

The next lines start with the compound.

Row | SMILES | Ki [1] | IC50 ([2]; first HCT-116 column (c4)) | IC50 ([2]; second HCT-116 column (c5)) | Ki [3] | CDK2 % Inhibition at 0.03 μM ([1]; 0.03 μM compound, Table 3) | CDK4 % Inhibition at 0.03 μM ([3]; 0.03 μM compound, Table 3) | HCT-116 % Inhibition at 0.1 μM [2, 4] | HCT-116 % Inhibition at 0.25 μM ([2]; HCT-116, Table 3) | further results
8 | Nc1nc(NC2CCN(S(=O)(=O)CCNC3CCS(=O)(=O)C3)CC2)sc1C(=O)c1c(F)cccc1F (centres unmarked) [Example K31, (4-Amino-2-{1-[2-(1,1-dioxo-tetrahydro-1-lamda-6-thiophen-3-ylamino)-ethanesulfonyl]-piperidin-4-ylamino}-thiazol-5-yl)-(2,6-difluoro-phenyl)-methanone Trifluoroacetic Acid Salt.] | 5.5 nM | > 5000 nM | > 5000 nM | 4.3 nM | – | – | – | – | –
9 | Nc1nc(NC2CCN(S(=O)(=O)c3ccc(-c4ccccn4)s3)CC2)sc1C(=O)c1c(F)cccc1F [Example F6, 1-{4-Amino-2-[1-(5-pyridin-2-yl-thiophene-2-sulfonyl)-piperidin-4-ylamino]-thiazol-5-yl}-1-(2,6-difluoro-phenyl)-methanone] | 0.43 nM | 170 nM | 450 nM | 0.46 nM | – | – | – | – | –
10 | Nc1ccc(S(=O)(=O)N2CCC(Nc3nc(N)c(C(=O)c4c(F)cccc4F)s3)CC2)cn1 [Example G8, 1-{4-Amino-2-[1-(6-amino-pyridine-3-sulfonyl)-piperidin-4-ylamino]-thiazol-5-yl}-1-(2,6-difluoro-phenyl)-methanone] | 0.6 nM | 590 nM | 2200 nM | 1.9 nM | – | – | – | – | –
11 | COc1ccc(OC)c(CC(=O)N2CCC(Nc3nc(N)c(C(=O)c4c(F)cccc4F)s3)CC2)c1 [Example Q78] | – | – | – | – | – | – | – | – | CDK2 % Inhibition at 0.03 μM ([1]; 0.03 μM compound, Table 4): 39%; HCT-116 % Inhibition at 0.1 μM ([2]; 0.1 μM compound, HCT-116, Table 4): 0.43%; HCT-116 % Inhibition at 0.25 μM ([2]; HCT-116, Table 4): 37%; CDK4 % Inhibition at 0.03 μM ([3]; 0.03 μM compound, Table 4): 46%
12 | Nc1nc(NC2CCN(C(=O)C3CC3)CC2)sc1C(=O)c1c(F)cccc1F [Example R89] | – | – | – | – | – | – | – | – | CDK2 % Inhibition at 0.03 μM ([1]; at 0.03 μM): 3%; HCT-116 % Inhibition at 0.1 μM ([2]; HCT-116 cells, at 0.1 μM): 0%; HCT-116 5 Inhibition at 0.25 μM ([2]; HCT-116 cells, at 0.25 μM): 46; CDK4 % Inhibition at 0.03 μM ([3]; at 0.03 μM): 5%
13 | Nc1nc(NC2CCN(C(=O)n3ccnc3)CC2)sc1C(=O)c1c(F)cccc1F [Example C17, {4-[4-Amino-5-(2,6-difluoro-benzoyl)-thiazol-2-ylamino]-piperidin-1-yl}-imidazol-1-yl-methanone] | 17 nM | 2100 nM | 4400 nM | 21 nM | – | – | – | – | –
14 | Nc1nc(NC2CCN(S(=O)(=O)c3ccc(-c4ncc[nH]4)cc3)CC2)sc1C(=O)c1c(F)cccc1F [Example F34] | < 1 nM | 1500 nM | 2600 nM | 0.51 nM | – | – | – | – | –
